Assays:
[1] = system: release of gonadotropins by the pituitary gland; experiment: potency of the peptide compared with LRF; settings: times more potent than LRF
Source text: The peptide can be used as a contraceptive for male mammals. The peptide can be administered by any suitable and convenient method, such as orally, by injection or subcutaneously. The peptide can be combined with suitable pharmaceutically acceptable carriers or diluents, such as vegetable oil, sugars, polysaccharides and gums.

male rats [2] = experiment: treatment of male rats with the peptide once a day: organ weights, plasma hormones, histology, fertility; type: in vivo, rat
Source text: It has been determined that the treatment of male rats with 10 micrograms of the peptide once a day for 7 days results in a decrease in testis and seminal vesicle weight, spermatogenesis and plasma androgen levels. However, immunoreactive gonadotropin levels in the treated male animals were elevated relative to control animals.

male mammals = experiment: effective dosage level and recovery after cessation of 7-day treatment; type: in vivo
Source text: The peptide is used at a level effective to prevent reproduction by male mammals. It has been determined that the peptide of the invention is effective at levels as low as 0.5 microgram per kilogram of body weight per day for 7 days to reduce testes and seminal vesicle weights. […] Prostate weights recover in 2 weeks and seminal vesicle weights in 4 weeks. It is preferred to use dosage levels in the range of from about 0.5 to about 50 micrograms per kilogram of body weight per day. Higher levels can be used but no significant benefit is attained through use of higher levels.

male rats [3] = experiment: treatment of male rats with the peptide once a day: organ weights, plasma hormones, histology, fertility; type: in vivo, rat; settings: 10 μG peptide for 15 days (Table I)
female rats = settings: large and frequent dosages; cited from earlier work
[4] = system: release of luteinizing hormone and other gonadotropins by the pituitary gland; settings: compared with Gly6 peptide; cited from earlier work
[5] = following cessation of the injections
[6] = male rats, 10 micrograms once a day for 7 days
[7] = following cessation of treatment for 7 days

CCNC(=O)[C@@H]1CCCN1C(=O)[C@H](CCCNC(=N)N)NC(=O)[C@H](CC(C)C)NC(=O)[C@@H](Cc1c[nH]c2ccccc12)NC(=O)[C@H](Cc1ccc(O)cc1)NC(=O)[C@H](CO)NC(=O)[C@H](Cc1c[nH]c2ccccc12)NC(=O)[C@H](Cc1c[nH]cn1)NC(=O)[C@@H]1CCC(=O)N1 [peptide, p--Glu--His--Trp--Ser--Tyr--D--Trp--Leu--Arg--Pro--NH--CH2 --CH3]
potency relative to LRF [1]: about 150 times
ability to cause fertilization (male rats [2]; [5]): incapable of causing fertilization
ability to effect coitus (male rats [2]; [5]): capable of effecting coitus
histological examination of the testes (male rats [2]; following the 7-day treatment, up to several weeks following cessation of daily injections): tubular damage, arrested spermatogenesis and degenerated Sertoli cells
immunoreactive gonadotropin levels relative to control animals (male rats [2]; [6]): elevated
testis and seminal vesicle weight, spermatogenesis and plasma androgen levels (male rats [2]; [6]): decrease
time for prostate weights to recover (male mammals; [7]): 2 weeks
time for seminal vesicle weights to recover (male mammals; [7]): 4 weeks
time until testosterone levels comparable to those of control animals (male mammals; [7]): one
level effective to reduce testes and seminal vesicle weights (male mammals; for 7 days): ≤ 0.5 microgram per kilogram of body weight per day
Plasma DHT (male rats [3]): 151 ng/mL
Plasma FSH (male rats [3]): 1582 ng/mL
Plasma LH (male rats [3]): 561 ng/mL
Plasma Test. (male rats [3]): 229 ng/mL
Wt. Sem. V. (male rats [3]): 0.18 Grams
Wt. Testis (male rats [3]): 1.33 Grams

p--Glu--His--Trp--Ser--Tyr--Gly--Leu--Arg--Pro--Gly--NH2 (EHWSYGLRPG; pyroglutamyl N-terminus, C-terminal amide; printed: Glu--His--Trp--Ser--Tyr--Gly--Leu--Arg--Pro--Gly--) [LRF, hypothalamic hormone which acts as a releasing factor for LH; decapeptide]
effect on gonadal function (female rats): inhibit gonadal function

p--Glu--Trp--Ser--Tyr--D--Ala--Leu--Arg--Pro--Gly--NH2
potency as an inhibitor for the release of gonadotropins relative to the same peptide with Gly in the 6-position [4]: 3 times

Source: patent US4218439A, “Peptide which inhibits gonadal function” (The Salk Institute for Biological Studies, priority 1978, dated 1980)
